Experimental data published in patent US20090221538A1, “METHODS OF TREATING MULTIPLE SCLEROSIS BY ADMINISTERING PULSE DOSE CALCITRIOL” (priority 2008, published 2009).

Legend:
[1] = tested on: MS; details: cited from earlier work
[2] = tested on: B10.PL mice with acute EAE; test: Treatment of MBP-induced acute EAE in B10.PL mice, daily clinical EAE disability score; assay type: in vivo; design: key to cumulative disability (sum of daily disability scores; mean) / Cumulative disability / EAE severity (initial) / Remission (minimum) / EAE severity (final) / EAE severity (decrease): EAE score 0 = normal to 5 = moribund; cumulative = sum of daily scores
Method: Breeding pairs of B10.PL-H2^uH2-T18^a/(73NS)/SnJ (hereafter B10.PL) mice were purchased from the Jackson Laboratory (Bar Harbor, Me.). The experimental B10.PL mice were either bred in the pathogen-free mouse colony at the University of Wisconsin Department of Biochemistry, or purchased from the Jackson Laboratory. Mice were housed at 23° C. with 40-60% humidity, 12 hr light-dark cycles, and ad libidum access to water. Unless stated otherwise, the mice were fed Lab Diet #5008 (PMI Nutrition International, Inc., Brentwood, Mo.) containing 0.33 μg/d vitamin D3 and 1% calcium. Experiments used male and female mice aged 6-8 wks (age- and sex-matched within experiments). The University of Wisconsin College of Agricultural and Life Sciences Institutional Animal Care and Use Committee approved all of the experimental protocols.
Bovine myelin basic protein (Sigma Chemical Co., St. Louis, Mo.) was dissolved at 2 mg/mL in 0.1 N acetic acid and emulsified with Complete Freund's adjuvant containing heat-killed Mycobacterium tuberculosis H37 Ra solution (Difco). Each mouse was injected subcutaneously with 0.1 mL emulsion in each hind flank (400 micrograms of MBP per mouse). On the day of immunization and again 2 days later, 200 nanograms of pertussis toxin was injected into the peritoneum. Thereafter, clinical EAE signs were scored daily as follows: 0, normal; 1, limp tail; 1.5, partial paralysis of one hind limb; 2, partial paralysis of both hind limbs; 2.5 partial paralysis of one hind limb and complete paralysis of one hind limb; 3, paralysis of both hind limbs; 4, hind and fore limb paralysis; 5, moribund.
The vitamin D3 and 1,25-(OH)2D3 were obtained from Sigma Chemical Co. The vitamin D3 was dissolved in safflower oil and stored in the dark at 5° C. The 1,25-(OH)2D3 was dissolved in 100% ethanol (1 mg/mL) and stored in the dark under nitrogen gas at −20° C. The concentration of 1,25-(OH)2D3 was determined by spectral analysis. Animals with stage 2.3±0.3 were randomized into treatment groups. The details of the treatments are given in the figure legends and table footnotes. The synthetic diet used in some experiments was formulated to contain all essential nutrients except vitamin D3 and was prepared exactly as we described (Spach and Hayes, 2005, J. Immunol. 175:4119-4126). For experiments using supplementary vitamin D3, the placebo group was fed the synthetic diet ad libidum without added vitamin D3, whereas the vitamin D3-supplemented group was fed the synthetic diet ad libidum with vitamin D3 added in an amount to provide 1 μg/d, calculated based on a daily measured consumption of 4.0 g dry weight of diet per mouse. Fresh synthetic diet was provided three times per week. At several times during the study, mice were weighed and blood samples were obtained from the tail vein. At the conclusion of the study, the mice were euthanized, a blood sample was obtained, perfusion was done, and the spinal cords and optic nerves were removed. The spinal cords were flash frozen with liquid nitrogen and stored at −70° C. prior to 1,25-(OH)2D3 extraction. Alternatively, the spinal cords were divided into 6 equal sections, aligned vertically, snap frozen in O.C.T. compound (Sakura Finetek USA, Torrance, Calif.) and stored at −70° C. for histopathology. The blood was clotted, centrifuged, and the decanted serum was frozen at −70° C. prior to analysis.
Individual mice were analyzed and the mean and SD were calculated for each group of mice. Experiments were repeated at least once. The significance of differences between the group means was determined using the Mann-Whitney test (n≦16), Student's t-test (n>16), or Chi-squared test (binomial data); p<0.05 was considered significant.

[3] = Serum calcium analysis; assay type: in vivo, mouse; details: mice with EAE, 1 μg/day vitamin D3, end of the 28 day study
Method: Blood was collected, clotted, and centrifuged (2,000×g for 10 min) at 6° C. The serum was decanted and stored at −20° C. The samples, standards, and buffer blanks (2 μL each) were aliquoted into duplicate wells of a 96-well plate. The calcium detection reagent was prepared according to the manufacturer's directions (Sigma Diagnostics. St. Louis, Mo.), and 0.25 mL was added to each well. The absorbance at 570 nm less the blank was measured 10 to 30 min later. The Ca^++ mmol/L serum was determined from a standard curve.

[4] = Serum 25-(OH)D3 radioimmunoassay; details: mice with EAE (score 1.5±0.5), 1 μg/day vitamin D3, end of the 28 day study
Method: The serum was extracted and the 25-(OH)D3 (DiaSorin, Stillwater, Minn.) and calcitriol (Nichols Institute Diagnostics, San Juan Capistrano, Calif.) concentrations were determined in duplicate with radioimmunoassay kits according to the manufacturer's protocols.

[5] = female and male B10.PL mice, chow-fed, 0.5 (female) or 1.0 (male) nmol injected once, 14 days post treatment

## glatiramer acetate
[1]; RRMS, PPMS or SPMS patients
  disability progression: did not slow disability progression
[1]; some relapsing-remitting MS (RRMS)
  reduction of the relapse rate: ~35%

## C=C1CC[C@H](O)C/C1=C/C=C1\CCC[C@]2(C)[C@@H]([C@H](C)CCCC(C)C)CC[C@@H]12 [vitamin D3]
[2]; 1 μg/day vitamin D3, 28 day study
  effect on clinical disability in mice with EAE: no effect
[2]; mice with EAE, 1 μg/day vitamin D3, 28 day study, both groups
  cumulative disability (sum of daily disability scores; mean): 71±18
[2]; mice with EAE, 1 μg/day vitamin D3, 28 day study, both groups (supplemented and un-supplemented)
  mortality: 9-14%
[3]
  serum calcium levels: 9.6 ± 1.5 mg/dL
[4]
  serum 25-(OH)D3: 8217 nmol/L

## C[C@H]1C[C@@H]2[C@H]([C@@H](O)C[C@@]3(C)[C@H]2CC[C@]3(O)C(=O)CO)[C@@]2(C)C=CC(=O)C=C12 [Methyl-prednisolone]
[2]; chow-fed male and female mice with EAE (score 2.3±0.4), 200 μg/d oral methyl-prednisolone
  mice in which remission was induced: 100%
[2]; chow-fed male and female mice with EAE, 200 μg/d oral methyl-prednisolone
  time to remission: 6 ± 2 days
[2]; [5]
  Cumulative disability: 24.8 ± 6.9
  EAE severity (decrease): 0.8 ± 0.7
  Remission (%): 40%
  Remission (days in): 3.0 ± 4.1 days
  Remission (days to): 3.0 ± 0.0 days
[2]; female and male B10.PL mice, chow-fed, 0.5 (female) or 1.0 (male) nmol of steroid compound injected once, score at randomization
  EAE severity (initial): 2.0 ± 0.0

## Natalizumab: an integrin-specific monoclonal antibody (mAb)
[1]; human, in vivo
  adverse risks: increased the risk of cardiac problems and fatal progressive multifocal leukoencephalopathy
[1]; over two years
  slowing of disability progression: ~42%
